For one experiment, the target named is JAK1 (Homo sapiens, UniProt P23458). Put plainly: JAK1 kinase inhibition assay (ULight-JAK-1 substrate, Eu-labeled anti-phosphotyrosine antibody). The format is biochemical. The settings on record: JAK1 10 nM, substrate 50 nM, ATP 40 μM, 2 hours at room temperature. The protocol: (§1) Example A: Activity Detection of JAK Kinase Small Molecule Inhibitors
(§2) Kinase reaction buffer was prepared with the following components: 50 mM HEPES, pH 7.5, 1 mM EGTA, 10 mM MgCl2, 2 mM DTT, 0.01% Tween20.
(§3) Detection buffer was prepared by diluting 10× detection buffer to IX with deionized water in a ratio of 9:1.
(§4) JAK kinase was diluted with kinase reaction buffer to 4× final concentration (JAK1: 40 nM, JAK2: 0.5 nM).
(§5) ULight™-JAK-1 (Tyr1023) substrate was diluted with kinase reaction buffer to 200 nM (final concentration: 50 nM).
(§6) ATP was diluted with kinase reaction buffer to 4× final concentration (JAK1: 160 μM, JAK2: 40 μM).
(§7) Compound to be tested was dissolved with DMSO to obtain a 10 mM storage solution, which was diluted to desired concentrations by a 3-fold gradient; for each compound 10 concentration points were set, and the final concentration of the compound to be tested ranges from 10 μM to 0.5 nM.
(§8) EDTA was dissolved with 1× detection buffer to 40 mM (EDTA final concentration: 10 mM).
(§9) Eu-labeled detection antibody (anti-phosphotyrosine (PT66)) was diluted with 1× detection buffer to 8 nM (final antibody concentration: 2 nM).
(§10) (1) To a 384-well plate, 2.5 μL 4× kinase solution and 2.5 μL 4× test compound solution with different concentrations that have been diluted were added successively, each concentration was set in duplicate, and an enzyme solution blank control and a negative control (DMSO group) were also set.
(§11) (2) The 384-well plate was shaken to mix enzyme and compound well, and then centrifuged at 1000 rpm for 1 minute, and incubated at room temperature for 60 minutes.
(§12) (3) 2.5 μL 4× substrate solution was added to the 384-well plate and centrifuged at 1000 rpm for 1 minute.
(§13) (4) 2.5 μL 4× ATP solution was added to the 384-well plate and centrifuged at 1000 rpm for 1 minute, and then enzyme reaction was initiated.
(§14) (5) For JAK1 the reaction was carried out at room temperature for 2 hours, and for JAK2 the reaction was carried out at room temperature for 1 hour.
(6) For the JAK1 reaction, the final concentrations of components are as follows: JAK1: 10 nM, substrate: 50 nM, ATP: 40 μM; and the final concentration of the tested compounds ranges from 10μ M to 0.5 nM.
(§15) (7) After the enzyme reaction was completed, 5 μL 4× enzyme reaction termination solution was added to each well of the 384-well plate, and then centrifuged at 1000 rpm for 1 minute and incubated at room temperature for 5 minutes.
(§16) (8) 5 μL 4× detection antibody solution (the final concentration of detection antibody is 2 nM) was added to each well of the 384-well plate, and then centrifuged at 1000 rpm for 1 minute and incubated at room temperature for 1 hour.
(§17) (9) At the antibody incubation was completed, signal value of each well was measured on a Envision plate reader.
(§18) (1) The percentage inhibition rate corresponding to each concentration of the tested compound was calculated on the basis that the blank control of enzyme solution corresponds to 100% and the negative control (DMSO group) corresponds to 0%.
(§19) (2) A nonlinear regression analysis of the logarithm of the concentration of the detected compound and the corresponding percentage inhibition rate was performed in GraphPad Prism software to obtain the half-inhibiting concentration (IC50) of the tested compound.

The next experiment addresses JAK2 (Homo sapiens, UniProt O60674). Put plainly: JAK2 kinase inhibition assay (ULight-JAK-1 substrate, Eu-labeled anti-phosphotyrosine antibody). Type of experiment: biochemical. The note with it: JAK2 0.125 nM, substrate 50 nM, ATP 10 μM, 1 hour at room temperature. How it is done:
as §1, §2, §3, §4, §5, §6, §7, §8, §9, §10, §11, §12, §13, §14
For the JAK2 reaction, the final concentrations of component are as follows: JAK2: 0.125 nM, substrate: 50 nM, ATP: 10 μM; and the final concentration of the tested compound ranges from 10 μM to 0.5 nM.
as §15, §16, §17, §18, §19

By pIC50 is commonly meant −log10 of the IC50, conventionally taken in molar units. The low end stands for a high IC50, the high end for a low IC50.

pIC50: −log10 of the molar value. Structures can show the parent of a compound that is named as a salt.

Sequence of JAK1 (P23458 whole entry, species assumed): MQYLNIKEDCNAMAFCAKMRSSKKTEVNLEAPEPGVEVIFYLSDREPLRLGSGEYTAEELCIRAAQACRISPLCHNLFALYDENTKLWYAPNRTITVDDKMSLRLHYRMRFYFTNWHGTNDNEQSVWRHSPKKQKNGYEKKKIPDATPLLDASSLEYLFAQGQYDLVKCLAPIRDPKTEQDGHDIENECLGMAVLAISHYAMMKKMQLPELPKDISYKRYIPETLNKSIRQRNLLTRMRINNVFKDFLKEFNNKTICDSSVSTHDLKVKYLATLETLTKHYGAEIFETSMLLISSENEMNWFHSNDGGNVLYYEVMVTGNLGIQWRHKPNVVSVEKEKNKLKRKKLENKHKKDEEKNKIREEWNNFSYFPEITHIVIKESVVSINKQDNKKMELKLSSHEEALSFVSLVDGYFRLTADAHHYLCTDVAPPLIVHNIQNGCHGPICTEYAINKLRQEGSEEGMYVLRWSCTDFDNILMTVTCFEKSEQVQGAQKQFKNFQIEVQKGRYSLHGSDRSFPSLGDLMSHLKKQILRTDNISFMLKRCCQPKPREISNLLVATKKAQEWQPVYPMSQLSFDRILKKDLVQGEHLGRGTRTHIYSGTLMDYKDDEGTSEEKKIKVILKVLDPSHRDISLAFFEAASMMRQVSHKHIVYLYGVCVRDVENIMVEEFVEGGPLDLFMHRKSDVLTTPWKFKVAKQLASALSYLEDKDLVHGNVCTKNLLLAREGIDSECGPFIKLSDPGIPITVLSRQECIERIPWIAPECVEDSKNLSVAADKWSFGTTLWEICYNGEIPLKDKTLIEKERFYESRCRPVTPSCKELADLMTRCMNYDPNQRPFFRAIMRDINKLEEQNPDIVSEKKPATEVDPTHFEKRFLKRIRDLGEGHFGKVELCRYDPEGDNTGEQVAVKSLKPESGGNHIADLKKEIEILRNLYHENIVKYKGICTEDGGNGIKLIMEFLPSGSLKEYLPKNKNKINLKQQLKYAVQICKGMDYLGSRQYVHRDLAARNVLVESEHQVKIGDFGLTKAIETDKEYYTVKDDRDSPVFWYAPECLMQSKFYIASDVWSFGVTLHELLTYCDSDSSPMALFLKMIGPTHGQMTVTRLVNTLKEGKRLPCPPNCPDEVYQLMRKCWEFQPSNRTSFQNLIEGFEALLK
Sequence of JAK2 (O60674 whole entry, species assumed): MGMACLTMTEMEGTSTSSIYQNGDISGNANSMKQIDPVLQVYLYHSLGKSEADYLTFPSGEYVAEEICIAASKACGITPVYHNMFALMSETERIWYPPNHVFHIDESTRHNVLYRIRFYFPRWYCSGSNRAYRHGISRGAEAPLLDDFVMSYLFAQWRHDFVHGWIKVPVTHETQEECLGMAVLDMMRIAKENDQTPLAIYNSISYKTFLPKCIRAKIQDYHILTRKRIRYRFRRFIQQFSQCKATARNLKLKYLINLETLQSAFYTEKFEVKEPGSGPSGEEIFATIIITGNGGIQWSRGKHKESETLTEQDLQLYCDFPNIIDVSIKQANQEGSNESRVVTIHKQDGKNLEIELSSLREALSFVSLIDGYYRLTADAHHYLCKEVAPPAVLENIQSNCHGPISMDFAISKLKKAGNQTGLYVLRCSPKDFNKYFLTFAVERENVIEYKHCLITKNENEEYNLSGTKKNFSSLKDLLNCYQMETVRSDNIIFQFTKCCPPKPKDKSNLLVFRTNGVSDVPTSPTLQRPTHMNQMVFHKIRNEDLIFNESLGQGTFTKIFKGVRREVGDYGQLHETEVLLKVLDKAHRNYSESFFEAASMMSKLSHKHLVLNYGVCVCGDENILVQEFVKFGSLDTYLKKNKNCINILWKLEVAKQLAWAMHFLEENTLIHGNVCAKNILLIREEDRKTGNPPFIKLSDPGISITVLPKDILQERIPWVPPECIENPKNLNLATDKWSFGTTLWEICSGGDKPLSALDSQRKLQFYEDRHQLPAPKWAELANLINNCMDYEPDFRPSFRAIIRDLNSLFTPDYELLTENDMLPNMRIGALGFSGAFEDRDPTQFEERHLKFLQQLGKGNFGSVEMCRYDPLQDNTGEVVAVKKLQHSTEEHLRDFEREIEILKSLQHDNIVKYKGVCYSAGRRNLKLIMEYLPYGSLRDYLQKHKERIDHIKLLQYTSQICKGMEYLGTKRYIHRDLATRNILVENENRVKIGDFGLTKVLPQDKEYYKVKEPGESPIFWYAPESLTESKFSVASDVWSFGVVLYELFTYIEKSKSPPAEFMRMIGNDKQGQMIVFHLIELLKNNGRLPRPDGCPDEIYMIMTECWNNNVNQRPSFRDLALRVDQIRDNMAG

Take `C[C@@H](OC(=O)Nc1ccccc1/N=N/c1ccc(O)c(C(=O)O)c1)c1nc2cnc3[nH]ccc3c2n1N1CCC(CC#N)CC1` [Compound A4]: the pIC50 against JAK1 is 6.98; on JAK2, 7.00.
The like results for `CC(=O)O[C@H](C)c1nc2cnc3[nH]ccc3c2n1N1CCC(CC#N)CC1` [Compound A5, (R)-1-(1-(4-(cyanomethyl)piperidin-1-yl)-1,6-dihydroimidazo[4,5-d]pyrrolo[2,3-b]pyridin-2-yl)ethyl acetate] were, in that order, 8.74 and 8.39.
The like results for `C[C@@H](OC(=O)CCCCO[N+](=O)[O-])c1nc2cnc3[nH]ccc3c2n1N1CCC(CC#N)CC1` [Compound A6, (R)-1-(1-(4-(cyanomethyl)piperidin-1-yl)-1,6-dihydroimidazo[4,5-d]pyrrolo[2,3-b]pyridin-2-yl)ethyl 5-(nitrooxy)valerate] were, in that order, 7.50 and 7.39.
The corresponding values for `C[C@@H](OC(=O)CN(C)C)c1nc2cnc3[nH]ccc3c2n1N1CCC(CC#N)CC1` [Compound A7, (R)-1-(1-(4-(cyanomethyl)piperidin-1-yl)-1,6-dihydroimidazo[4,5-d]pyrrolo[2,3-b]pyridin-2-yl)ethyl dimethylglycinate] are 8.41 and 7.24.
As to `CC(C)[C@@H](N)C(=O)O[C@H](C)c1nc2cnc3[nH]ccc3c2n1N1CCC(CC#N)CC1` [Compound A8, (R)-1-(1-(4-(cyanomethyl)piperidin-1-yl)-1,6-dihydroimidazo[4,5-d]pyrrolo[2,3-b]pyridin-2-yl)ethyl D-valinate], the pIC50 was 8.23 against JAK1 and 7.14 against JAK2.
The corresponding values for `CC(C)[C@H](N)C(=O)O[C@H](C)c1nc2cnc3[nH]ccc3c2n1N1CCC(CC#N)CC1` [Compound A9, (R)-1-(1-(4-cyanomethylpiperidin-1-yl)-1,6-dihydroimidazo[4,5-d]pyrrolo[2,3-b]pyridin-2-yl)ethyl L-valinate] are 8.52 and 7.25.
The like results for `COC(=O)/C=C/C(=O)OCO[C@H](C)c1nc2cnc3[nH]ccc3c2n1N1CCC(CC#N)CC1` [Compound A10, (R)-(1-(1-(4-(cyanomethyl)piperidin-1-yl)-1,6-dihydroimidazo[4,5-d]pyrrolo[2,3-b]pyridin-2-yl)ethoxy)methyl monomethyl fumarate] were, in that order, 7.01 and 7.68.
The corresponding values for `CSCC1(C)CCN(n2c(CO[N+](=O)[O-])nc3cnc4[nH]ccc4c32)CC1` [Compound A11, (1-(4-Methyl-4-((methylthio)methyl)piperidin-1-yl)-1,6-dihydroimidazo[4,5-d]pyrrolo[2,3-b]pyridin-2-yl)methyl nitrate] are 8.25 and 8.38.
Consider `CSCC1(C)CCN(n2c(CCO[N+](=O)[O-])nc3cnc4[nH]ccc4c32)CC1` [Compound A12, 2-(1-(4-Methyl-4-((methylthio)methyl)piperidin-1-yl)-1,6-dihydroimidazo[4,5-d]pyrrolo[2,3-b]pyridin-2-yl)ethyl nitrate], for which the pIC50 against JAK1 was 7.41; against JAK2, 7.42.
The corresponding values for `Nc1nc2cnc3[nH]ccc3c2n1N1CCCCC1` [Compound B1, 1-(Piperidin-1-yl)-1,6-dihydroimidazo[4,5-d]pyrrolo[2,3-b]pyridin-2-amine] are 8.67 and 7.41.
The like results for `N#CCS(=O)(=O)NCC1CCN(n2c(N)nc3cnc4[nH]ccc4c32)CC1` [Compound B2, N-((1-(2-aminoimidazo[4,5-d]pyrrolo[2,3-b]pyridin-1(6H)-yl)-piperidin-4-yl)methyl)-1-cyano methanesulfonamide] were, in that order, 10.35 and 10.00.
Turning to `N#CCC1CCN(n2c(N)nc3cnc4ccsc4c32)CC1` [Compound B4, 2-(1-(2-amino-1H-imidazo[4,5-d]thieno[3,2-b]pyridin-1-yl)piperidin-4-yl)acetonitrile], the pIC50 against JAK1 is 9.33; against JAK2 it was 8.76.
Turning to `N#CC[C@H]1CC[C@H](n2c(N)nc3cnc4ccoc4c32)CC1` [Compound B5, 2-((1R,4R)-4-(2-amino-1H-furo[3,2-b]imidazo[4,5-d]pyridin-1-yl)cyclohexyl)acetonitrile], the negative logarithm of the IC50 (pIC50) was 8.88 against JAK1 and 8.15 at JAK2.
Regarding `N#CCC1CCN(n2c(/N=N/c3ccc(O)c(C(=O)O)c3)nc3cnc4[nH]ccc4c32)CC1` [Compound B7, (E)-5-((1-(4-cyanomethylpiperidin-1-yl)-1,6-dihydroimidazo[4,5-d]pyrrolo[2,3-b]pyridin-2-yl)diazenyl)-2-hydroxybenzoic acid], the negative logarithm of the IC50 (pIC50) was 9.00 against JAK1 and 9.57 on JAK2.
The corresponding values for `N#CC[C@H]1CC[C@H](n2c(/N=N/c3ccc(O)c(C(=O)N[C@H](CC(=O)O)C(=O)O)c3)nc3cnc4[nH]ccc4c32)CC1` [Compound B8, (5-((E)-(1-((1R,4R)-4-(cyanomethyl)cyclohexyl)-1,6-dihydroimidazo[4,5-d]pyrrolo[2,3-b]pyridin-2-yl)diazenyl)-2-hydroxybenzoyl)-D-aspartic acid] are 8.76 and 8.37.
On to `N#CC[C@H]1CC[C@H](n2c(/N=N/c3ccc(O)c(C(=O)N[C@H](CCCCN)C(=O)O)c3)nc3cnc4[nH]ccc4c32)CC1` [Compound B9, (5-((E)-(1-((1R,4R)-4-(cyanomethyl)cyclohexyl)-1,6-dihydroimidazo[4,5-d]pyrrolo[2,3-b]pyridin-2-yl)diazenyl)-2-hydroxybenzoyl)-D-lysine], for which the negative-log IC50 (pIC50) at JAK1 was 8.60; against JAK2, 8.18.
The corresponding values for `N#CC[C@H]1CC[C@H](n2c(/N=N/c3ccc(O)c(C(=O)N[C@H](CCC(=O)O)C(=O)O)c3)nc3cnc4[nH]ccc4c32)CC1` [Compound B10, (5-((E)-(1-((1R,4R)-4-(cyanomethyl)cyclohexyl)-1,6-dihydroimidazo[4,5-d]pyrrolo[2,3-b]pyridin-2-yl)diazenyl)-2-hydroxybenzoyl)-D-glutamic acid] are 8.87 and 9.55.
The corresponding values for `N#CC[C@H]1CC[C@H](n2c(/N=N/c3ccc(O)c(C(=O)N[C@H](CCCN=C(N)N)C(=O)O)c3)nc3cnc4[nH]ccc4c32)CC1` [Compound B11, (R)-2-(5-((E)-(1-((1R,4R)-4-(cyanomethyl)cyclohexyl)-1,6-dihydroimidazo[4,5-d]pyrrolo[2,3-b]pyridin-2-yl)diazenyl)-2-hydroxybenzamido)-5-((diaminomethylene)amino)valeric acid] are 8.80 and 8.47.
For the molecule `N#CC[C@H]1CC[C@H](n2c(/N=N/c3ccc(O)c(C(=O)NCCS(=O)(=O)O)c3)nc3cnc4[nH]ccc4c32)CC1` [Compound B12, 2-(5-((E)-(1-((1R,4R)-4-(cyanomethyl)cyclohexyl)-1,6-dihydroimidazo[4,5-d]pyrrolo[2,3-b]pyridin-2-yl)diazenyl)-2-hydroxybenzamido) ethan-1-sulfonic acid], the results for the negative-log IC50 (pIC50) on JAK1 and on JAK2 were 8.99 and 9.33, respectively.
